Data reported in PubChem BioAssay (NCI).
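Where inhibition never reached the appropriate level, the endpoint shown equals the highest concentration tested. Otherwise, values were interpolated linearly from a five-concentration, 48-hour dose response in 96-well plates. The concentration for full growth arrest is given as TGI.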

Experiments:
Assay in all cases: inhibition of tumour cell growth, NCI panel, 48 h
HCT-15 colon = tested on: HCT-15 colon
HL-60(TB) leukemia = tested on: HL-60(TB) leukemia
HS 578T breast = tested on: HS 578T breast
IGROV1 ovarian = tested on: IGROV1 ovarian
M14 melanoma = tested on: M14 melanoma
NCI/ADR-RES ovarian = tested on: NCI/ADR-RES ovarian
OVCAR-4 ovarian = tested on: OVCAR-4 ovarian
SK-OV-3 ovarian = tested on: SK-OV-3 ovarian
UO-31 renal = tested on: UO-31 renal
MDA-MB-231 breast = tested on: MDA-MB-231 breast

| SMILES | TGI (HCT-15 colon) | TGI (HL-60(TB) leukemia) | TGI (HS 578T breast) | TGI (IGROV1 ovarian) | TGI (M14 melanoma) | TGI (NCI/ADR-RES ovarian) | TGI (OVCAR-4 ovarian) | TGI (SK-OV-3 ovarian) | TGI (UO-31 renal) | TGI (MDA-MB-231 breast) |
| --- | --- | --- | --- | --- | --- | --- | --- | --- | --- | --- |
| Cn1c2ccccc2n2c(=O)c3cc([N+](=O)[O-])ccc3c(C#N)c12 | > 100 µM | > 100 µM | > 100 µM | > 100 µM | > 100 µM | > 100 µM | > 100 µM | > 100 µM | > 100 µM | – |
| O=C1NC2OC(CO)C(O)C(O1)C2O (stereo unspecified) | > 100 µM | > 100 µM | – | > 100 µM | > 100 µM | – | > 100 µM | > 100 µM | > 100 µM | – |
| O=C(Cc1ccccc1)NN1C(=O)/C(=C\c2ccc([N+](=O)[O-])cc2)SC1=Nc1ccccc1 | > 100 µM | – | > 100 µM | > 100 µM | > 100 µM | > 100 µM | > 100 µM | > 100 µM | > 100 µM | > 100 µM |
| NC1CNC(=O)c2c(Cl)sc(Cl)c21 (stereo unspecified) | > 100 µM | – | > 100 µM | > 100 µM | > 100 µM | > 100 µM | > 100 µM | > 100 µM | > 100 µM | > 100 µM |
| O=c1c(-c2ccc(Cl)cc2)nnc2n(Cc3ccccc3)c3ccccc3n12 | > 100 µM | > 100 µM | > 100 µM | > 100 µM | > 100 µM | > 100 µM | 30.7 µM | – | > 100 µM | 67.8 µM |
| Cc1cccc(C)c1NC(=O)C(=O)C1C(=O)NC(=O)NC1=O | > 100 µM | > 100 µM | – | > 100 µM | > 100 µM | – | > 100 µM | > 100 µM | > 100 µM | – |
| O=c1[nH]nc(-c2ccccc2)c2[nH]c(-c3ccccc3)cc12 | > 100 µM | > 100 µM | > 100 µM | > 100 µM | > 100 µM | > 100 µM | > 100 µM | > 100 µM | > 100 µM | – |
| O=C(CSc1n[nH]c(=O)[nH]c1=O)NNC(=O)c1cccc2nc3ccccc3nc12 | > 100 µM | > 100 µM | > 100 µM | > 100 µM | > 100 µM | > 100 µM | > 100 µM | > 100 µM | – | > 100 µM |
| CSC(C1c2ccccc2N(c2ccc(C)cc2)C2=NC(=O)N(C)C(=O)C21Cl)S(=O)(=O)c1ccc(C)cc1 (stereo unspecified) | – | 12.6 µM | – | 85.6 µM | 72.3 µM | – | 34.6 µM | 87.6 µM | 69.9 µM | – |
| Cc1cc2ncc3c(=O)n(NS(=O)(=O)c4ccc(N)cc4)ccc3n2n1 | > 100 µM | > 100 µM | > 100 µM | > 100 µM | > 100 µM | – | > 100 µM | > 100 µM | > 100 µM | > 100 µM |
| COc1c(Br)cc(CC(N)=O)c(O)c1Br | – | > 100 µM | – | > 100 µM | – | – | > 100 µM | > 100 µM | > 100 µM | – |
| NC(=O)c1cc2ccccc2o/c1=N/O | > 100 µM | > 100 µM | 91.6 µM | > 100 µM | > 100 µM | > 100 µM | – | > 100 µM | > 100 µM | > 100 µM |
| O=[N+]([O-])c1ccc(NC(=S)N=Nc2c(O)[nH]c3ccc(Br)cc23)cc1 | 12.9 µM | 7.09 µM | 39.6 µM | 18.3 µM | – | 6.13 µM | 21.1 µM | 28.9 µM | – | 32 µM |
| CC(=O)OCC(OC(C)=O)C1C[C@H]2O[C@@H]3[C@H](C[C@H]2O1)O[C@@]1(C[C@@H]3C)C[C@H](C)[C@@H]2O[C@]3(C[C@@H]2O1)C[C@H]1O[C@H]2[C@H](C)[C@H]4OC(=O)CC5CC[C@H]6OC7[C@H]8O[C@]9(CC[C@H]%10CC(O)(CO)[C@H](CC[C@H]%11C[C@@H](C)C(O)(CO)C(C[C@@H]4O[C@H]2C[C@H]1O3)O%11)O%10)CC8O[C@@H]7[C@@H](O9)[C@H]6O5 (stereo partly specified) | – | – | 0.00517 µM | > 1 µM | > 1 µM | > 0.205 µM | > 1 µM | > 1 µM | > 1 µM | > 1 µM |
| O=C(N/N=C/c1ccco1)c1cc(I)cc(I)c1O | > 50 µM | 27.7 µM | > 50 µM | > 50 µM | > 50 µM | > 50 µM | > 50 µM | – | > 50 µM | – |
| CCOC(=O)/C(C#N)=N\Nc1ccc(-n2c(C)nc3ccccc3c2=O)cc1 | > 100 µM | > 100 µM | > 100 µM | > 100 µM | > 100 µM | 86.8 µM | – | > 100 µM | > 100 µM | > 100 µM |
| CCC(=O)Oc1c2ccsc2c(OC(=O)CC)c2ccsc12 | 1.07 µM | – | 1.2 µM | 3.65 µM | 0.305 µM | 0.832 µM | 2.39 µM | 15.8 µM | 1.45 µM | 1.27 µM |
| COc1ccc2c(c1)CC1=C(O2)c2ccc(OC)cc2OC1 | 36.8 µM | > 100 µM | – | > 100 µM | 37.3 µM | > 100 µM | 90.1 µM | > 100 µM | > 100 µM | 89.6 µM |
| COc1cc(/C=C\C(=O)O)ccc1OCc1ccccc1 | > 100 µM | > 100 µM | > 100 µM | > 100 µM | > 100 µM | > 100 µM | – | > 100 µM | > 100 µM | > 100 µM |
| COc1ccc(Nc2nc3c([nH]2)c(=O)n(C)c(=O)n3C)cc1 | > 10 µM | > 10 µM | – | > 10 µM | > 10 µM | – | > 10 µM | > 10 µM | – | > 10 µM |
| CCOn1c(C2(CC3CCN(C(=O)c4ccccc4)CC3)OCCO2)cc2ccccc21 | 42.3 µM | – | – | 31.7 µM | 33.6 µM | 33.9 µM | 29.9 µM | 45.3 µM | 26.9 µM | 30 µM |
| Nc1c(C(=O)c2ccc(Cl)cc2)[nH]c(NCc2ccccc2)c1C(=S)Nc1ccccc1 | 3.36 µM | 14 µM | – | 6.43 µM | 3.54 µM | 24.2 µM | 4.15 µM | 49.8 µM | 3.02 µM | 3.91 µM |
